Laboratory results from patent US20060172951A1, “Age related macular degeneration and cutaneous signs of mercury toxicity” (priority 2005, published 2006).
“Also recorded” adds a separate entry of the source. Structures can show the parent of a compound that is named as a salt.

Tested on: Grover's disease
Assay: Treatment of patients with Grover's disease (clinical study)
Assay type: in vivo, human
Details: three patients with Grover's disease; diet (no seafood) and chelation with Succimer 200-300 mg TID x 1-2 months
Description: Fourteen patients with Grover's disease (ages 55-85) were randomly selected from a private dermatology practice. All patients were diagnosed using the following criteria: (1) complaints of pruritic eruption of the chest, abdomen or back; (2) physical exam showing discreet small (<2 mm) scattered erythematous scaly or crusted papules of chest, abdomen or back; (3) biopsy showing a superficial perivascular infiltrate of lymphocytes, suprabasal clefts and acantholytic cells. All patients gave verbal consent for a shave biopsy of a skin lesion and a blood test for mercury. Two were women and twelve were men.
Of the fourteen patients with Grover's disease, all had measurable blood mercury (mean—10 u/Liter). All patients complained of pruritus and were aware of skin lesions. All fourteen patients were treated with topical steroids without improvement.

For O=C(O)[C@@H](S)[C@@H](S)C(=O)O [Succimer, 2,3-dimercaptosuccinic acid or salt thereof], the “Effect of treatment on the cutaneous eruption of Grover's disease” value was “clearing of the eruption; also recorded: beneficial effect”.
